Here are results for seven compounds from patent US8362004B2, “Piperazine analogs as broad-spectrum influenza antivirals” (priority 2010, dated 2013).

The subject of one assay is influenza A/WSN/33. Description: Antiviral assay in MDCK cells, viral neuraminidase (MUNANA) readout, A/H1N1/WSN. To be noted: read-out: A/H1N1/WSN Activity. The assay is classed as cell-based.
The test system of assay [1] is influenza A/Brisbane/10/2007. The experiment in a line: Antiviral assay in MDCK cells, viral neuraminidase (MUNANA) readout, A/H3N2/Brisbane. The format is cell-based. The note with it: read-out: A/H3N2/Brisbane Activity.
The next assay relates to A/H5N1/Gull_PA. The experiment in a line: microbe, parasite or virus in culture. The assay is classed as cell-based, influenza A.
In another assay the test system is A/H5N1/Duck_MN. Description: microbe, parasite or virus in culture. The format is cell-based, influenza A.
Assay [2] has as its system Influenza A/Solomon Islands/3/06. Description: Antiviral assay in MDCK cells, viral neuraminidase (MUNANA) readout, A/H1N1/Solomon Islands. The format is cell-based. The note with it: read-out: A/H1N1/Solomon Islands Activity.
The test system of another assay is A/H5N1/Duck_PA. The experiment in a line: microbe, parasite or virus in culture. The assay is classed as cell-based, influenza A.
Setting [3] is: MDCK cells, MOI 0.001, 48 hrs post infection, viral NA activity.
The mark [4] stands for this setting: Influenza A virus, H5N1, read-out: A/H5N1/Gull_PA.
Setting [5] is: Influenza A virus, H5N1, read-out: A/H5N1/Duck_MN.
The mark [6] stands for this setting: Influenza A virus, H5N1, read-out: A/H5N1/Duck_PA.

Where two headings read alike, the source gives them in different places.

As to `COc1ccccc1-c1nnn(C)c1C(=O)N1CCN(c2cc(NC(=O)c3ccc(N4CCOC4=O)cc3)c([N+](=O)[O-])cc2Cl)CC1` [Example 93], the EC50 with influenza A/WSN/33 (setting [3]) was less than 0.1 µM; in assay [1] (setting [3]) it was less than 1 µM; with A/H5N1/Gull_PA (read-out: A/H5N1/Gull_PA) it was less than 0.1 µM; in the assay on A/H5N1/Duck_MN (read-out: A/H5N1/Duck_MN), less than 1 µM; in assay [2] (setting [3]), less than 0.1 µM; in the assay on A/H5N1/Duck_PA (read-out: A/H5N1/Duck_PA) it was less than 1 µM.
With `COc1ccc(C(=O)Nc2cc(N3CCN(C(=O)c4c(-c5cccc6ccccc56)noc4C)CC3)c(Cl)cc2[N+](=O)[O-])cc1` [Example 77, N-(4-chloro-5-(4-(5-methyl-3-(naphthalen-1-yl)isoxazole-4-carbonyl)piperazin-1-yl)-2-nitrophenyl)-4-methoxybenzamide], the EC50 with A/H5N1/Gull_PA (setting [4]) was less than 0.1 µM; in the assay on A/H5N1/Duck_MN (setting [5]) it was less than 1 µM; with A/H5N1/Duck_PA (setting [6]), less than 1 µM.
`Cc1onc(-c2cccc3ccccc23)c1C(=O)N1CCN(c2cc(NC(=O)c3nccs3)c([N+](=O)[O-])cc2Cl)CC1` [Example 78, N-(4-chloro-5-(4-(5-methyl-3-(naphthalen-1-yl)isoxazole-4-carbonyl)piperazin-1-yl)-2-nitrophenyl)thiazole-2-carboxamide]: the EC50 is less than 0.1 µM with A/H5N1/Gull_PA (setting [4]), less than 1 µM in the assay with A/H5N1/Duck_MN (setting [5]) and less than 1 µM in the assay on A/H5N1/Duck_PA (setting [6]).
For `COc1ccccc1-c1noc(C)c1C(=O)N1CCN(c2cc(NC(=O)c3nccs3)c([N+](=O)[O-])cc2Cl)CC1` [Example 5], the EC50 is less than 0.1 µM with influenza A/WSN/33 (setting [3]); less than 1 µM in assay [1] (setting [3]); less than 0.1 µM in the assay with A/H5N1/Gull_PA (read-out: A/H5N1/Gull_PA); less than 0.1 µM in the assay with A/H5N1/Duck_MN (read-out: A/H5N1/Duck_MN); less than 0.1 µM in assay [2] (setting [3]); less than 0.1 µM in the assay on A/H5N1/Duck_PA (read-out: A/H5N1/Duck_PA).
Regarding `COc1ccccc1-c1noc(C)c1C(=O)N1CCN(c2cc(NC(=O)c3ccco3)c([N+](=O)[O-])cc2Cl)CC1` [Example 8], the EC50 in the assay with A/H5N1/Gull_PA (read-out: A/H5N1/Gull_PA) was less than 0.1 µM; in the assay with A/H5N1/Duck_MN (read-out: A/H5N1/Duck_MN) it was less than 1 µM; in the assay on A/H5N1/Duck_PA (read-out: A/H5N1/Duck_PA) it was less than 0.1 µM.
Turning to `COc1ccccc1-c1noc(C)c1C(=O)N1CCN(c2cc(NC(=O)c3ccc(OC(F)F)cc3)c([N+](=O)[O-])cc2Cl)CC1` [Example 13], the EC50 in the assay with A/H5N1/Gull_PA (read-out: A/H5N1/Gull_PA) was less than 0.1 µM; with A/H5N1/Duck_MN (read-out: A/H5N1/Duck_MN), less than 1 µM; in the assay with A/H5N1/Duck_PA (read-out: A/H5N1/Duck_PA), less than 1 µM.
Turning to `COc1ccccc1-c1noc(C)c1C(=O)N1CCN(c2cc(NC(=O)c3ccc(N(C)C)cc3)c([N+](=O)[O-])cc2Cl)CC1` [Example 14, N-(4-chloro-5-(4-(3-(2-methoxyphenyl)-5-methylisoxazole-4-carbonyl)piperazin-1-yl)-2-nitrophenyl)-4-(dimethylamino)benzamide], the EC50 in the assay on influenza A/WSN/33 (Influenza A virus, MDCK, 48 h) is less than 0.1 µM; in assay [1] (Influenza A virus, H3N2, MDCK, 48 h), less than 0.1 µM; in the assay with A/H5N1/Gull_PA (setting [4]), less than 0.1 µM; with A/H5N1/Duck_MN (setting [5]), less than 0.1 µM; in assay [2] (Influenza A virus, H1N1, MDCK, 48 h), less than 0.1 µM; with A/H5N1/Duck_PA (setting [6]) it was less than 1 µM.
